# In article PMC6792352, “Limited Chemical Structural Diversity Found to Modulate Thyroid Hormone Receptor in the Tox21 Chemical Library” (Environmental Health Perspectives, 2019):
# Where a name gives a salt, the structure may show the parent alone.
# Experiment: in vitro
# Settings: rat, gh3-tre-luc cells
Compound,CC50 at 24 h (AC50 (uM) modified / 1000) [µM],also measured
"O=c1cc(-c2ccccc2)oc2ccc3ccccc3c12 [5,6-Benzoflavone]",> 90,–
Cc1oc(-c2ccccc2)nc1CCOc1cccc2c1ccn2CCC(=O)O [PD-0333941],18.9,–
CCN(CCCCOC(=O)c1ccc(OC)c(OC)c1)C(C)Cc1ccc(OC)cc1 (centres unmarked) [Mebeverine hydrochloride],> 20,–
CCC(C)n1c(=O)[nH]c(C)c(Br)c1=O (centres unmarked) [Bromacil],> 90,–
CC[N+](C)(CC)CCOC(=O)C(O)(c1ccccc1)C1CCCCC1 (centres unmarked) [Oxyphenonium bromide],> 50,–
CC1CNc2c(cccc2S(=O)(=O)N[C@@H](CCCNC(=N)N)C(=O)N2CC[C@@H](C)C[C@@H]2C(=O)O)C1 (some centres unmarked) [Argatroban],> 50,–
CCCCC(CC)COS(=O)(=O)O (centres unmarked) [Sodium ethasulfate],> 90,–
ClC1(Cl)C2(Cl)C3(Cl)C4(Cl)C(Cl)(Cl)C5(Cl)C3(Cl)C1(Cl)C5(Cl)C24Cl (centres unmarked) [Mirex],–,"CC50 at 24 h (AC50 (uM) modified / 1000, Tox21_110001=Tox21_300592, viability, 1 nM T3 present, 24 h): > 90 µM"
O=C(OCCOCCOC(=O)c1ccccc1)c1ccccc1 [Diethylene glycol dibenzoate],> 90,–
Oc1ccc2ccc3cccc4ccc1c2c34 [1-Hydroxypyrene],> 90,–
CC1=CCCC(C)(C)C12CCC(C)O2 (centres unmarked) [Theaspirane],> 90,–
O=C(O)c1cccc(N(Cc2cccnc2)c2ccc(OC(F)F)c(OC(F)F)c2)c1 [PharmaGSID_48510],75.3,–
O=C(O)[C@@H]1CSCN1 [L-Thioproline],> 50,–
CC1(C)NC(=O)N(c2ccc([N+](=O)[O-])c(C(F)(F)F)c2)C1=O [Nilutamide],> 90,–
CCC(C)c1ccccc1O (centres unmarked) [2-(Butan-2-yl)phenol],> 90,–
Cc1c(NC(C)C)c(=O)n(-c2ccccc2)n1C [Ramifenazone],> 50,–
NNC(N)=O [Semicarbazide hydrochloride],> 90,–
"COc1ccc(C(=O)c2ccc(O)cc2)c(OC)c1 [(2,4-dimethoxyphenyl)(4-hydroxyphenyl)methanone]",> 90,–
CCCCN [Butylamine],> 50,–
c1ccc(-c2nnn[nH]2)cc1 [5-Phenyl-1H-tetrazole],> 90,–
COC(=O)c1ccc(C)cc1 [Methyl 4-methylbenzoate],> 90,–
CCCC1([C@H](O)C/C=C/[C@H]2[C@H](O)CC(=O)[C@@H]2CCCCCCC(=O)OC)CCC1 [(R)-Butaprost],32.9,–

Compound,CC50 at 24 h (AC50 (uM) modified / 1000) [µM],also measured
CCCOCCO [2-Propoxyethanol],> 90,–
Cc1ccc(N=C=O)cc1N=C=O [Toluene diisocyanate],–,"CC50 at 24 h (AC50 (uM) modified / 1000, Tox21_110001=Tox21_200144, viability, 1 nM T3 present, 24 h): > 90 µM"
CC(C)CC=O [3-Methylbutanal],> 90,–
Nc1cccc2c1CN(C1CCC(=O)NC1=O)C2=O (centres unmarked) [Lenalidomide],> 50,–
Cc1cc(=O)nc(C(C)C)[nH]1 [2-Isopropyl-6-methyl-4-pyrimidone],> 90,–
"OCC(Br)CBr (centres unmarked) [2,3-Dibromopropanol]",–,"CC50 at 24 h (AC50 (uM) modified / 1000, Tox21_110001=Tox21_200709, viability, 1 nM T3 present, 24 h): > 90 µM"
CCCCC(CC)COC(=O)CCCCCCCC(=O)OCC(CC)CCCC (centres unmarked) [Bis(2-ethylhexyl) nonanedioate],> 90,–
CN1CSC(=S)N(C)C1 [Dazomet],–,"CC50 at 24 h (AC50 (uM) modified / 1000, Tox21_110001=Tox21_201236, viability, 1 nM T3 present, 24 h): 5.54 µM; CC50 at 24 h (AC50 (uM) modified / 1000, Tox21_110001=Tox21_300990, viability, 1 nM T3 present, 24 h): 34.4 µM"
OCC(O)c1ccccc1 (centres unmarked) [Styrene glycol],> 90,–
CCCCNc1c(C(=O)OCC)c(C)nc2c1cnn2CC [Tracazolate hydrochloride],> 50,–
CCCCOC(=O)CC#N [Butyl cyanoacetate],> 100,–
COc1nc(N)nc2nc[nH]c12 [O6-Methylguanine],> 90,–
NC(=O)NO [Hydroxyurea],> 90,–
CC(C)CC(O)Cc1ccccc1 (centres unmarked) [4-Methyl-1-phenyl-2-pentanol],> 90,–
CCc1nn(C2CCCCC2)c2cc(C3(C#N)CCC(C(=O)O)CC3)ccc12 (centres unmarked) [CP-401387],49.9,–
N=C1NC(=O)N2CC12 (centres unmarked) [Imexon],> 50,–
Cc1c(OCC(F)(F)F)ccnc1C[S+]([O-])c1nc2ccccc2[nH]1 (centres unmarked) [Lansoprazole],> 90,–
"Nc1cc(N)cc(C(=O)O)c1 [3,5-Diaminobenzoic acid]",> 90,–
CCOC(=O)C(SP(=S)(OC)OC)c1ccccc1 (centres unmarked) [Phenthoate],> 90,–
CN(C)C(=O)NC1(c2ccccc2)CCN(CC[C@@]2(c3ccc(F)c(F)c3)CN(C(=O)c3ccccc3)CCO2)CC1 [SR144190],55.6,–
CC1=CC(=O)CCC1 [3-Methyl-2-cyclohexen-1-one],> 90,–
COC1=CC(=O)O[C@@H](CCc2ccccc2)C1 [Dihydrokavain],> 100,–

Compound,CC50 at 24 h (AC50 (uM) modified / 1000) [µM],also measured
Nc1ccc(C(=O)O)c(O)c1 [Sodium 4-aminosalicylate],> 50,–
CCO[Si](OCC)(OCC)c1ccccc1 [Triethoxy(phenyl)silane],> 90,–
"c1ccc(CNCCNCc2ccccc2)cc1 [N,N'-Dibenzylethane-1,2-diamine dihydrochloride]",> 50,–
O=c1[nH]c2ccccc2o1 [2-Benzoxazolinone],> 90,–
N#Cc1ccccc1 [Benzonitrile],> 90,–
"Cc1cc(C)n(CO)n1 [(3,5-Dimethyl-1H-pyrazol-1-yl)methanol]",> 90,–
C=C(C)CS(=O)(=O)O [Sodium 2-methylprop-2-ene-1-sulfonate],> 90,–
"CC(C)(CC(=O)O)C(=O)O [2,2-Dimethylbutanedioic acid]",> 90,–
C=CCCCCCCCCC(=O)OCC [Ethyl undec-10-enoate],> 90,–
CNC(=O)Oc1cccc(C(C)C)c1 [m-Cumenyl methylcarbamate],> 90,–
"CC1=C(C)C(=O)C(C(CCCCCC(=O)O)c2ccccc2)=C(C)C1=O (racemic) [(+-)-7-(3,5,6-trimethyl-1,4-benzoquinon-2-yl)-7-phenylheptanoic acid]",> 50,–
O=C(CCCN1CCC(O)(c2ccc(Br)cc2)CC1)c1ccc(F)cc1 [Bromperidol],> 20,–
OC(c1ccc(F)cc1)(c1cncnc1)c1ccccc1Cl (centres unmarked) [Nuarimol],> 90,–
[O-][n+]1cc[n+]([O-])c2ccccc21 [Quindoxin],> 50,–
CN/C(=N\c1ccc(C2=NNC(=O)CC2C)cc1)NC#N (centres unmarked) [Siguazodan],> 50,–
C[C@]12CCC(=O)C=C1C=C[C@@H]1[C@@H]2CC[C@@]2(C)[C@H]1CC[C@@]2(O)CCC(=O)O [Canrenoate potassium],> 20,–
"C[C@@H](O)C[C@@H](C)O [2,4-Pentanediol]",> 90,–
Cc1cc(C)c(C2=C(OC(=O)CC(C)(C)C)C3(CCCC3)OC2=O)c(C)c1 [Spiromesifen],> 100,–
NC(=O)N[C@@H](CCC(=O)O)C(=O)O [N-Carbamyl-L-glutamic acid],> 50,–
CCCN(CC1CC1)c1c([N+](=O)[O-])cc(C(F)(F)F)cc1[N+](=O)[O-] [Profluralin],–,"CC50 at 24 h (AC50 (uM) modified / 1000, Tox21_110001=Tox21_301566, viability, 1 nM T3 present, 24 h): 76.2 µM"
CN(C)/C=N/c1c(I)cc(I)c(CCC(=O)O)c1I [Ipodate sodium],> 50,–
CCN(CC)CCOc1ccccc1C(=O)CCc1ccccc1 [Etafenone],18.1,–

Compound,CC50 at 24 h (AC50 (uM) modified / 1000) [µM],also measured
"CN(C)Cc1cc(C(C)(C)C)c(O)c(C(C)(C)C)c1 [2,6-Di-tert-butyl-4-[(dimethylamino)methyl]phenol]",50.7,–
COc1ccc(C(=O)/C(Br)=C\C(=O)O)cc1 [Cytembena],44,–
COC(=O)[C@H]1[C@H]2C[C@@H]3c4[nH]c5cc(OC)ccc5c4CCN3C[C@H]2C[C@@H](OC(=O)/C=C/c2cc(OC)c(OC)c(OC)c2)[C@@H]1OC [Rescinnamine],> 20,–
COc1cc2c(cc1OC)CC(=O)N(CCCN(C)C[C@H]1Cc3cc(OC)c(OC)cc31)CC2 [Ivabradine hydrochloride],> 50,–
"FC(F)(F)c1ccc(Cl)cc1Cl [2,4-Dichlorobenzotrifluoride]",> 90,–
CCCCCCOC(=O)CCCCC(=O)OCCCCCC [Dihexyl hexanedioate],> 90,–
COC1=C(OC)C(=O)C(CCCCCCCCCCO)=C(C)C1=O [Idebenone],35.2,–
Cc1cc(N)n(-c2ccccc2)n1 [3-Methyl-1-phenyl-1H-pyrazol-5-amine],> 90,–
CC(=O)Nc1ccc(C)c(Cl)c1 [N-(3-Chloro-4-methylphenyl)acetamide],> 90,–
NNC(=O)c1cccnc1 [Nicotinic acid hydrazide],–,"CC50 at 24 h (AC50 (uM) modified / 1000, Tox21_110001=Tox21_200666, viability, 1 nM T3 present, 24 h): > 90 µM"
Cc1ccc(C(C)(C)C)cc1 [4-tert-Butyltoluene],> 90,–
COC(=O)CCC(=O)OC [Dimethyl succinate],> 90,–
c1cnccn1 [Pyrazine],> 90,–
Cc1ccccc1CNc1ncnc2c1ncn2[C@@H]1O[C@H](CO)[C@@H](O)[C@H]1O [Metrifudil],> 50,–
O=C(O)c1ccc([N+](=O)[O-])cc1 [4-Nitrobenzoic acid],> 90,–
CCN1CCN(C(=O)N[C@@H](C(=O)N[C@@H]2C(=O)N3[C@@H]2SC(C)(C)[C@@H]3C(=O)O)c2ccccc2)C(=O)C1=O [Piperacillin sodium salt],> 50,–
CN(CCOc1ccc(NS(C)(=O)=O)cc1)CCc1ccc(NS(C)(=O)=O)cc1 [Dofetilide],> 50,–
Cc1nc2cc(Cl)ccc2[nH]1 [5-Chloro-2-methyl-1H-benzimidazole],> 90,–
C[C@]12CCC(=O)C=C1CC[C@@H]1[C@@H]2[C@@H](O)C[C@@]2(C)[C@H]1CC[C@]2(O)C(=O)COP(=O)(O)O [Hydrocortisone sodium phosphate],> 50,–
